Data set [1] has as its system outer hair cells in organotypic cultures of the neonatal organ of Corti. The data set is described as follows: Hair cell counts in neomycin-exposed cochlear explant cultures. It is filed as cell-based, rat. As for the experimental part:
(§1) The basal half of cochleas containing the basal and middle turns were dissected from postnatal day 2 Wistar rats. The cultures were maintained on Nuclepore filters (pore size […]; Pleasanton, Calif.) placed on a metal grid in F12 medium (Life Technologies, Gaithersburg, Md.) containing 15% fetal bovine serum (Life Technologies). After a 2-hour-long stabilization period, explants were exposed to 100 mM neomycin sulfate (Sigma, St Louis, Mo.) for 48 hr.
(§2) Explants were fixed with 4% paraformaldehyde/0.5% glutaraldehyde in phosphate buffered saline (PBS), pH 7.4, for 30 min and dissected for surface preparations. They were stained with a 1:100 dilution of rhodamine-phalloidin in PBS containing 0.25% Triton X-l 00 overnight at 4° C. and mounted in Vectashield (Vector). Outer hair cell (OHC) numbers were quantified with a Zeiss Axiovert 100/135 epifluorescent microscope (Germany) connected to a Bio-Rad MRC-1024 confocal laser scanning system (Richmond, Calif.). Hair cells were characterized as missing if no stereocilia and cuticular plate were observed. Numbers of OHCs were evaluated using a 40×objective lens and an ocular grid. Nine to 1 fields filled by 30 OHCs in each of the 3 rows (when all of them were present) were studied from each explant. Basal and middle coils were analyzed separately. Three separate experiments, each including 4 explants of both conditions (neomycin and neomycin plus Formula II) were analyzed.
as §1, with “μM” for “mM”, “hr. The compounds of Formula I and the compound of Formula I were added at 500 nM at the time of initiation of the cultures and every 12 hr thereafter. Neomycin plus vehicle was used as a control.” for “hr.”
as §2, with “X-100” for “X-l 00”, “40x objective” for “40×objective”, “Several” for “Nine to 1”, “separately.” for “separately. Three separate experiments, each including 4 explants of both conditions (neomycin and neomycin plus Formula II) were analyzed.”

Data set [2] has as its system cochlear ganglion neurons. The settings on record: Ylikoski et al., 1998; cited from earlier work.
Setting [3] is: 100 mM neomycin (so in the source) alone for 48 hr, n=12.

In the case of `O=C1NC(=O)c2c1c1c(c3[nH]c4ccccc4c23)Cc2ccccc2-1` [Example 8, 6H,12H,13H-Indeno[2,3-a]pyrrolo[3,4-c]carbazole-5,7(5H, 7H)-dione], in data set [1] (Rattus norvegicus, 48 h, compound 500 nM plus 100 μM neomycin 48 hr, NEO = neomycin plus vehicle, each line a separate count, read-out: % preserved), the viability at 0.5 µM worked out at 21%.

In the case of “NGF: nerve growth factor, negative control in cochlear neuron cultures”, in data set [2], the “survival of dissociated cochlear neurons of the perinatal rat” value is listed as “does not have any effect or its effect is very weak”.

With neomycin sulfate [reference compound], in data set [1] (setting [3]), the “OHCs in the basal turn lost” value was “Approximately 90%” and the “OHCs in the middle turn lost” value is listed as about 25%.

B1: NT-3: neurotrophic factor, positive comparator in cochlear neuron cultures (protein, UniProt P20783 139-257, looked up)
Neurotrophin-3: YAEHKSHRGEYSVCDSESLWVTDKSSAIDIRGHQVTVLGEIKTGNSPVKQYFYETRCKEARPVKNGCRGIDDKHWNSQCKTSQTYVRALTSENNKLVGWRWIRIDTSCVCALSRKIGRT
Consider B1, for which the “survival of dissociated cochlear neurons of the perinatal rat” value in data set [2] was “most potent neurotrophic factor promoting survival”.

The values are drawn from US6448283B1, “Methods for preventing/treating damage to sensory hair cells and cochlear neurons” (Cephalon, Inc., priority 1998, dated 2002).
